In US11918550B2, “Sensitization of cancer cells to differentiation therapy with mitochondrial uncoupler niclosamide ethanolamine” (The Board of Trustees of the Leland Stanford Junior …, priority 2020, dated 2024):

Tests used:
Format in all cases: cell-based
[1] = test system: RA-resistant neuroblastoma cells; assay: Cell proliferation (cell counting), NEN with RA; conditions: NEN combined with RA, 3 days
Procedure: Cell proliferation and clonogenic assay. 2×10^4 cells were seeded in 12 well-plate and allowed to attached overnight. […] After treatment, cells were counted using hemocytometer.

SK-N-BE(2) cells [2] = assay: Relative intracellular metabolite levels by LC/MS
Procedure: (§1) Metabolic analysis. For the metabolomics and isotope tracing analysis in vitro, cells were washed with cold PBS, lysed in 80% Ultra LC-MS acetonitrile on ice for 15 minutes, centrifuged at 20,000 g for 10 minutes at 4° C., and supernatant was subjected to mass spectrometry analysis. For the metabolomics analysis in vivo, 10-20 mg tissue were cut off on ice, rinsed if necessary to remove blood, and place in a 2 ml round-bottom cryovial. The tissues were homogenized by 3 times 10 s on/off bursts homogenization in 1 ml 80% methanol on dry ice. Transfer the homogenate to an Eppendorf tube and keep on liquid nitrogen while processing the remaining samples. Incubated all the samples in −80° C. for 30 minutes. After incubation, vortexed the samples for 5 seconds. Then centrifuged the samples at 20,000 g for 10 minutes at 4° C., and supernatant was subjected to mass spectrometry analysis. Resuspend the remaining cellular pellet in 100 ul protein lysis buffer and determine the protein concentration. Then calculate the total protein content per sample.
(§2) Liquid chromatography was performed using an Agilent 1290 Infinity LC system (Agilent, Santa Clara, US) coupled to a Q-TOF 6545 mass spectrometer (Agilent, Santa Clara, US). A hydrophilic interaction chromatography method (HILIC) with a BEH amide column (100×2.1 mm i.d., 1.7 μm; Waters) was used for compound separation at 35° C. with a flow rate of 0.3 ml/minutes. The mobile phase A consisted of 25 mM ammonium acetate and 25 mM ammonium hydroxide in water and mobile phase B was acetonitrile. The gradient elution was 0-1 minute, 85% B; 1-12 minutes, 85% B→65% B; 12-12.2 minutes, 65% B→40% B; 12.2-15 minutes, 40% B. After the gradient, the column was re-equilibrated at 85% B for 5 minutes. The overall runtime was 20 minutes, and the injection volume was 5 μL. Agilent Q-TOF was operated in negative mode and the relevant parameters were as listed: ion spray voltage, 3500 V; nozzle voltage, 1000 V; fragmentor voltage, 125 V; drying gas flow, 11 L/minutes; capillary temperature, 325° C., drying gas temperature, 350° C.; and nebulizer pressure, 40 psi. A full scan range was set at 50 to 1600 (m/z). The reference mass was 119.0363 and 980.0164. The acquisition rate was 2 spectra/s. Targeted analysis, isotopologues extraction and natural isotope abundance correction were performed by Agilent Profinder B.10.00 (Agilent Technologies).

HIF2α = assay: Western blot of nuclear HIF2α under normoxia or hypoxia; conditions: SK-N-BE(2), 2 or 4 μM NEN, 3.5 mM α-KG
Procedure: Protein extraction and immunoblot. […] Cell lysate was centrifuged at 3000 rpm for 3 min at 4° C. The supernatant containing cytosolic proteins was transferred to a different tube. […] Then the solution was sonicated at 4° C. for 6 cycles (1 cycle=30 s sonication and 30 s cooldown with “High” energy intensity) using a Bioruptor® Plus sonication (Diagenode, UCD-300). After sonication, the solution was centrifuged at 15,000 rpm for 10 minutes. The supernatant was kept as nuclear extraction. […] After blocking in 5% non-fat milk for 30 minutes at room temperature (RT), the primary antibody was added for incubation overnight at 4° C.

SK-N-BE(2) cells [3] = assay: U-13C-glutamine isotope tracing (LC/MS)
Procedure: as §1, §2
(§3) Stable isotope tracing analysis. […] Then the culture medium was changed to DMEM/F-12, no glutamine (Gibco, 21331020) with 4 mM U-^13C5-glutamine (Cambridge Isotope Laboratories, CLM-1822-H) and 10% dialyzed FBS (Gibco, 26400044) under same treatment condition as above for 2 h. […] Then changed the medium to DMEM/F-12, no glutamine (Gibco, 21331020) with 4 mM 1-^13C-glutamine (Cambridge Isotope Laboratories, CLM-CLM-3612-PK) and 10% dialyzed FBS (Gibco, 26400044) for 2 h with same treatment under normoxia or hypoxia for 2 h.

NB16 cells = assay: U-13C-glutamine isotope tracing (LC/MS)
Procedure: as §1, §2, §3

[4] = SK-N-BE(2) cells, 1 μM NEN 2 h or 5 h vs DMSO
[5] = SK-N-BE(2) cells, 1 μM NEN 5 h vs DMSO
[6] = SK-N-BE(2), 1 μM NEN under hypoxia 3 h or 6 h
[7] = 1 μM NEN 3 h pretreatment then 2 h label
[8] = NB16, 1 μM NEN 3 h pretreatment then 2 h label

Compound: O=C(Nc1ccc([N+](=O)[O-])cc1Cl)c1cc(Cl)ccc1O [NEN, 5-chloro-N-(2-chloro-4-nitrophenyl)-2-hydroxybenzamide compound with 2-aminoethanol (1:1)]
- RA-dependent proliferation arrest effect [1]: enhanced
- aspartate level (SK-N-BE(2) cells [2]; [4]): accumulated
- citrate level (SK-N-BE(2) cells [2]; [4]): not affected
- fumarate level (SK-N-BE(2) cells [2]; [4]): no significant increase
- intracellular α-KG levels (SK-N-BE(2) cells [2]; [4]): increased significantly
- malate level (SK-N-BE(2) cells [2]; [4]): no significant increase
- succinate level (SK-N-BE(2) cells [2]; [4]): accumulated
- intracellular glutamate level (SK-N-BE(2) cells [2]; [5]): significantly reduced
- intracellular glutamine level (SK-N-BE(2) cells [2]; [5]): significantly reduced
- 2-HG levels under hypoxia (SK-N-BE(2) cells [2]; [6]): significantly reduced
- α-KG level under hypoxia (SK-N-BE(2) cells [2]; [6]): partially restored
- inhibition of the accumulation of HIF2a protein (HIF2α): inhibited
- labelling abundance of m+2 (2nd cycle) and m+½ (3rd cycle) aspartate (SK-N-BE(2) cells [3]; [7]): significantly increased
- labelling abundance of m+2 (2nd cycle) and m+½ (3rd cycle) succinate (SK-N-BE(2) cells [3]; [7]): significantly increased
- labelling percentage of m+3 (2nd cycle) α-KG (SK-N-BE(2) cells [3]; [7]): significantly increased
- labelling percentage of m+½ (3rd cycle) α-KG (SK-N-BE(2) cells [3]; [7]): significantly increased
- m+5 labelling abundance of 2-HG (SK-N-BE(2) cells [3]; [7]): significantly decreased
- m+5 α-KG labelling from U-13C-glutamine (SK-N-BE(2) cells [3]; [7]): no significant increase
- reductive carboxylation flux (labelling fraction of m+5 citrate, m+3 fumarate, m+3 malate) (SK-N-BE(2) cells [3]; U-13C-glutamine, 1 μM NEN, normoxia): significantly inhibited
- m+4 aspartate (NB16 cells; [8]): increased
- m+4 succinate (NB16 cells; [8]): increased
- m+5 2-HG labelling (NB16 cells; [8]): no significant reduction
- m+5 and m+3 labeling of α-KG from glutamine (NB16 cells; [8]): increased
- reductive carboxylation flux (labelling fraction of m+5 citrate, m+3 fumarate, m+3 malate) (NB16 cells; NB16, U-13C-glutamine, 1 μM NEN, normoxia): significantly inhibited
